For test [1], the target named is T1, Sepiapterin reductase (Homo sapiens, UniProt P35270). Nature of the test: The LC/MS assay monitors the product formation (L-biopterin) and the chromogenic assay measures OD at 420 nm.N-methoxyacetyl serotonin was used as a reference compound (positive control). […] (2) Add 40 uL enzyme/assay buffer.
Test [2] concerns the target T1, Sepiapterin reductase. Briefly: LC/MS assay: To screen for SPR inhibition, a biochemical assay based on LC/MS (and chromogenic) read-out has been developed. The LC/MS assay monitors the product formation (L-biopterin) and the chromogenic assay measures OD at 420 nm.N-methoxyacetyl serotonin was used as a reference compound (positive control). […] (2) Add 40 uL enzyme/assay buffer.

Each structure is given as a SMILES string.

T1 sequence (P35270 whole entry): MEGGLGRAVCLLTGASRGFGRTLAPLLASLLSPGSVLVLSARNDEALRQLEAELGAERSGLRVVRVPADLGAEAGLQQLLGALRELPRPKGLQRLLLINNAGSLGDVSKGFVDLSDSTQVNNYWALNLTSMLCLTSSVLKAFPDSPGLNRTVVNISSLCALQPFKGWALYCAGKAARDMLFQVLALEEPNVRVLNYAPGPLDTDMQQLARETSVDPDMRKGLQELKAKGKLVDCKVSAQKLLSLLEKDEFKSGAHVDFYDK

On to `COCC(=O)NCCc1c[nH]c2ccc(NS(C)(=O)=O)cc12`, for which the IC50 (as a rule, the concentration at which inhibition is half-maximal) at Sepiapterin reductase [1] came out at 1.1 µM; on Sepiapterin reductase [2], 1 µM.

Source of the values: ChEMBL document CHEMBL3886312, “Sepiapterin reductase inhibitors for the treatment of pain” (2015).
